Several values for one entry are separate records, joined by “and”; a condition that tells them apart may be missing. Identical values can stand only once.
How the values were obtained:
Adenosine receptor A1 [1] = molecular target: T1, Adenosine receptor A1 (Bos taurus, UniProt P28190)
T1 sequence (P28190 whole entry): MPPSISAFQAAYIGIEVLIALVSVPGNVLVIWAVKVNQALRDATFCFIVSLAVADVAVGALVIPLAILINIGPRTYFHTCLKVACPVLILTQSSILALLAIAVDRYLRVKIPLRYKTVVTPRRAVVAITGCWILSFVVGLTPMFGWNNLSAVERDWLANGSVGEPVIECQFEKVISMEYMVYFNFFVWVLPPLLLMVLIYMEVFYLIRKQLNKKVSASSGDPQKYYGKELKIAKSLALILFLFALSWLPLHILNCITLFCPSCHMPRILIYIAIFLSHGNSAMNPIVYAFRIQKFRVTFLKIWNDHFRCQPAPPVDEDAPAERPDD

P2Y purinoceptor 2 = P2Y purinoceptor 2 (Cricetulus griseus, UniProt P58825)
Adenosine receptor A3 = molecular target: T2, Adenosine receptor A3 (Ovis aries, UniProt P35342)
T2 sequence (P35342 whole entry): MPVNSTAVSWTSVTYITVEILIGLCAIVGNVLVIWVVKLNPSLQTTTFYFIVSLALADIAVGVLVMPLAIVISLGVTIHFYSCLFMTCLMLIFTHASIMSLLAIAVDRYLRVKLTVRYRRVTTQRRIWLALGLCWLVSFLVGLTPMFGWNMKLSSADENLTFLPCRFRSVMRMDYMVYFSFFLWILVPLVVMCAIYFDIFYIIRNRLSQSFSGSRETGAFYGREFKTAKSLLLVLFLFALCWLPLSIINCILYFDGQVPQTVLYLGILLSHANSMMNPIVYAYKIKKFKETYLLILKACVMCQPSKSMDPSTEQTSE

Adenosine receptor A1 [2] = molecular target: T3, Adenosine receptor A1 (Oryctolagus cuniculus, UniProt P34970)
T3 sequence (P34970 whole entry): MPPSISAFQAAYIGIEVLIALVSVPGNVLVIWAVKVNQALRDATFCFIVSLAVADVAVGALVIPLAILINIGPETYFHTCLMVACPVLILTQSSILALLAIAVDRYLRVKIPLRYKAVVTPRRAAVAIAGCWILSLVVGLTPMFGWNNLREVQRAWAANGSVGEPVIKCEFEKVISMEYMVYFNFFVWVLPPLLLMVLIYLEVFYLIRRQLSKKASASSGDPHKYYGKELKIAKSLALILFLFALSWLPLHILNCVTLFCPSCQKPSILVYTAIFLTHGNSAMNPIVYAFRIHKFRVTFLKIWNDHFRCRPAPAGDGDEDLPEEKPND

Adenosine receptor A1 [3] = molecular target: T4, Adenosine receptor A1 (Rattus norvegicus, UniProt P25099)
T4 sequence (P25099 whole entry): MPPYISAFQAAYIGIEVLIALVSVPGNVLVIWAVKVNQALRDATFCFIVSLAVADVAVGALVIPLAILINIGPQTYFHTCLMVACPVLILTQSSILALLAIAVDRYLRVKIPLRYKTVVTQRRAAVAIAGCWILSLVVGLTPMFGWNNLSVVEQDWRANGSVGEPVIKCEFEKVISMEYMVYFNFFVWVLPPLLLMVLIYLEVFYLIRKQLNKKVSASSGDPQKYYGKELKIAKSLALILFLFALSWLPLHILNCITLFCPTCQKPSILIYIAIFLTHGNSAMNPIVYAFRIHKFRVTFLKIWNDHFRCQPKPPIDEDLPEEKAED

Adenosine receptor A1 [4] = molecular target: T5, Adenosine receptor A1 (Cavia porcellus, UniProt P47745)
T5 sequence (P47745 whole entry): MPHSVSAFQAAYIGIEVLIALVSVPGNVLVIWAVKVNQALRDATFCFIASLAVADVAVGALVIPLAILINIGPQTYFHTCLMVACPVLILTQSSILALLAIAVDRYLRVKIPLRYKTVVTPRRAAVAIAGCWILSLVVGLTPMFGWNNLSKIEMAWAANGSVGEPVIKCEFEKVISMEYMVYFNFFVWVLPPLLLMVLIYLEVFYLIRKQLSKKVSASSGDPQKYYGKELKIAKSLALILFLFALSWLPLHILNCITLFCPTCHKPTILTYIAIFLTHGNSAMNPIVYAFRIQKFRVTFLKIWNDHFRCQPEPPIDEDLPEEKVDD

P2Y purinoceptor 2, sequence (P58825 whole entry): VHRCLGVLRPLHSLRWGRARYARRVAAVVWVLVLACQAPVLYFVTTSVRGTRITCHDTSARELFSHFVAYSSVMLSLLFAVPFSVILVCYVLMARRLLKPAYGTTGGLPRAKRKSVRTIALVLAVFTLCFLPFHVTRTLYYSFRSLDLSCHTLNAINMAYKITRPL

Ki (Adenosine receptor A1 [1])	Ki (P2Y purinoceptor 2)	Ki (Adenosine receptor A3)	Ki (Adenosine receptor A1 [2])	Ki (Adenosine receptor A1 [3])	Ki (Adenosine receptor A1 [4])	Compound
0.05 nM	0.14 nM	0.1 nM				CCCn1c(=O)c2[nH]c(C3CCCC3)nc2n(CCC)c1=O [DPCPX]
0.03 nM	0.31 nM	0.09 nM	0.45 nM	0.49 nM	1.48 nM and 5.49 nM	CCCn1c(=O)c2[nH]c(-c3ccc(OCC(=O)NCCN)cc3)nc2n(CCC)c1=O [N-(2-Amino-ethyl)-2-[4-(2,6-dioxo-1,3-dipropyl-2,3,6,9-tetrahydro-1H-purin-8-yl)-phenoxy]-acetamide]
1.4 nM	4.3 nM	2.9 nM	6.4 nM	6.3 nM	26.1 nM	Cn1c(=O)c2[nH]c(C3CCCC3)nc2n(C)c1=O [NSC_1917]

Compound	Ki (Adenosine receptor A1 [1])	Ki (P2Y purinoceptor 2)	Ki (Adenosine receptor A3)	Ki (Adenosine receptor A1 [2])	Ki (Adenosine receptor A1 [3])	Ki (Adenosine receptor A1 [4])
Cn1c(=O)c2[nH]cnc2n(C)c1=O [Theophylline (1,3-dimethylxanthine)]		4550 nM	9050 nM	4710 nM		

Source: BindingDB's records for doi:10.1007/bf00168610 (UniversitÄT Heidelberg, 1991)
